Data published in US20210235699A1, “Adjuvant Compositions Comprising a Tetramethylguanidine and a 4-Isothiazolin-3-One” (Lonza, LLC, priority 2018, published 2021).
Entries after “also recorded” stand apart in the source; their conditions may differ. Where a name gives a salt, the structure may show the parent alone. Marks after values point to notes of the source that are not given here.

Assays:
Type in all cases: cell-based
[1] = test system: combined bacterial test inoculum: Acinetobacter calcoaceticus, Escherichia coli, Pseudomonas aeruginosa, Enterobacter cloacae; assay: Bacterial challenge test (ASTM D2574-97, modified) in standard water based interior paint; design: key to Streak plate rank, 1st inoculation 24 h / Streak plate rank, 1st inoculation 72 h / Streak plate rank, 2nd inoculation 72 h / Streak plate rank, 3rd inoculation 24 h: 0 = no growth; 1 = 1-5 Colony Forming Unit (cfu); 2 = 6-15 cfu; 3 = 16-30 cfu; 4 = 31-45 cfu; 5 = greater than 45 cfu; 5c = Confluent Growth; conditions: for Dilution plate count, 3rd inoculation 72 h / Streak plate rank, 3rd inoculation 24 h: inoculum 2.50%; for Streak plate rank, 2nd inoculation 72 h: inoculum 5%; for Streak plate rank, 1st inoculation 24 h / Streak plate rank, 1st inoculation 72 h: inoculum 10%; for effect of guanidine on bactericidal activity of 4-isothiazolin-3-ones (in words): in combination with BIT and BBIT, Tables 3 and 5
Procedure: (§1) The following bacterial and fungal challenge tests were performed to ascertain whether low concentrations of 4-isothiazolin-3-one biocidal active compounds, pyrithione, coumarin or guanidine adjuvant are sufficient to prevent microbial contamination of final products when deliberately inoculated with spoilage microbes.
(§2) The tests were performed according to ASTM standard D2574-97 (Standard Test Method for Resistance of Emulsion Paints in the Container to Attack by Microorganisms, ASTM International, West Conshohocken, Pa.), with higher inoculation volumes and frequency. A standard water based interior paint was used as the test substrate. Sample sizes of 20 g test substrate were used and the test samples were prepared in a sterile 30 mL square Nalgene bottle.
The bacteria were grown on pH 5, 7, or 9 Trypticase Soy Agar (TSA) lawns. The bacteria were grown individually on TSA and harvested by using sterile buffered water. The bacterial lawns were washed off with 30 mL of sterile water and an equal volume of each individual cell suspension was withdrawn from each serum bottle to make a combined cell suspension. Combined bacterial suspension were about 10^7 cfu/mL, which provides about 10^6 cfu/mL in the sample.
(§3) The following microorganisms were used for inoculation of the tested samples:
(§4) For the bacterial challenge testing, each sample was inoculated with a combined bacterial test inoculum volume equivalent to 10% of the total initial sample volume for the initial inoculation, 5% of the total initial sample volume for the second inoculation and 2.5% of the total initial sample volume for the third inoculation. Inoculum volumes for the fungal challenge tests were 2%, 1% and 0.5% of the total initial sample volume, respectively. Samples were inoculated every 96 h.
(§5) Concentrations of biocidal active compounds and adjuvants refer to the final concentration in the test samples prior to the first inoculation.
(§6) The efficacy of the added agent in each sample was monitored by means of a streak plate test after 24 hours (all inoculations) and 72 hours of inoculation (first and second inoculation). At 72 hours of the third inoculation performed, a dilution plate count was performed in order to obtain a quantitative measurement of contamination (cfu/mL). A count of less than 10 colony forming units per mL ([…]) is considered to show no measurable contamination. For the streak plate tests, bacterial samples were streaked on Tryptic Soy Agar (TSA) and incubated for 48 hours at 30° C. before reading. Fungal samples were streaked on Potato Dextrose Agar (PDA) and incubated for 5 days at 25° C. before reading.
(§7) The streak plates were ranked from 0-5c according to the degree of microbial growth:
(§8) The challenge tests were performed as described above.

[2] = test system: fungal test inoculum: Aspergillus niger, Penicillium funiculosum, Candida albicans; assay: Fungal challenge test (ASTM D2574-97, modified) in standard water based interior paint; design: key to Streak plate rank, 2nd inoculation 72 h / Streak plate rank, 1st inoculation 72 h / Streak plate rank, 1st inoculation 24 h / Streak plate rank, 2nd inoculation 24 h / Streak plate rank, 3rd inoculation 24 h: 0 = no growth; 1 = 1-5 Colony Forming Unit (cfu); 2 = 6-15 cfu; 3 = 16-30 cfu; 4 = 31-45 cfu; 5 = greater than 45 cfu; 5c = Confluent Growth; conditions: for Dilution plate count, 3rd inoculation 72 h / Streak plate rank, 3rd inoculation 24 h: inoculum 0.50%; for Streak plate rank, 1st inoculation 24 h / Streak plate rank, 1st inoculation 72 h: inoculum 2%; for effect of guanidine on fungicidal activity of 4-isothiazolin-3-ones (in words): in combination with BIT and BBIT, Tables 4 and 6
Procedure: as §1, §2
Fungal lawns were grown on Potato Dextrose Agar (PDA) or Sabouraud Dextrose Agar (SAB). Individual fungal spore suspensions were harvested by adding 10 mL of sterile 0.05% Triton X to fungal lawns. The lawns were then gently agitated by rubbing a sterile swab on the lawn, being careful not to puncture the agar. The liquid was then aseptically transferred to a sterile bottle containing sterile glass beads. The top of the bottle was closed and the bottle shaken vigorously to break up any chunks in the suspension. The shaken spore suspension was decanted through sterile fibers into another sterile bottle. The decanted spore suspension was counted using a hemocytometer. Once the spore counts were determined, each suspension was diluted in order to obtain 10^6 spore/mL. Each diluted fungal suspension was poured into a sterile container.
as §3
as §4, with “Inoculum volumes for the fungal challenge tests were 2%, 1% and 0.5% of the total initial sample volume, respectively.” left out
as §5, §6, §7, §8

[3] = test system: bacterial test inoculum (Acinetobacter calcoaceticus, Escherichia coli, Pseudomonas aeruginosa, Enterobacter cloacae); assay: Quick kill testing in pre-contaminated standard interior paint (dilution-plate counts)
Procedure: An additional test was performed to analyze how quickly the tested biocidal compositions will recover a sample from microbial spoilage. For each sample, 20 g of a pre-contaminated standard interior paint formulation serving as a test substrate was weighed into a sterile container. All samples were contaminated with the bacterial test inoculum described above (10% of the of the total initial sample volume).
A dilution-plate count was performed on the untreated sample (0 hour time point) and a biocidal composition added aseptically to each sample. Subsequent to this treatment, further dilution-plate counts were performed at fixed time intervals (time points are given in hours) on each sample, including an untreated negative control. All samples were incubated at 30° C.±2° C.
Concentrations in ppm refer to final concentrations of the biocidal compositions in the test samples. The relative amounts of active compounds and adjuvant in the tested biocidal compositions were as indicated below: […]

Structure (SMILES): [Na+].[O-][n+]1ccccc1[S-] [NaPT, sodium pyrithione]
- Dilution plate count, 3rd inoculation 72 h ([1]; 80 ppm): 2.2 × 10^7 cfu/mL
- Streak plate rank, 3rd inoculation 24 h ([1]; 80 ppm): 5c
- Streak plate rank, 2nd inoculation 72 h ([1]; 80 ppm): 5c
- Streak plate rank, 1st inoculation 24 h ([1]; 80 ppm): 5c
- Streak plate rank, 1st inoculation 72 h ([1]; 80 ppm): 5c
- Dilution plate count, 3rd inoculation 72 h ([2]; 80 ppm): <10 cfu/mL
- Streak plate rank, 3rd inoculation 24 h ([2]; 80 ppm): 0
- Streak plate rank, 2nd inoculation 24 h ([2]; 80 ppm, inoculum 1%): 0
- Streak plate rank, 2nd inoculation 72 h ([2]; 80 ppm, inoculum 1%): 0
- Streak plate rank, 1st inoculation 24 h ([2]; 80 ppm): 0
- Streak plate rank, 1st inoculation 72 h ([2]; 80 ppm): 0

Structure (SMILES): CN(C)C(=N)N(C)C [TMG, 1,1,3,3-tetramethylguanidine]
- Dilution plate count, 3rd inoculation 72 h ([1]; 750 ppm): 1.7 × 10^5 cfu/mL
- Streak plate rank, 3rd inoculation 24 h ([1]; 750 ppm): 5c
- Streak plate rank, 2nd inoculation 72 h ([1]; 750 ppm): 5c
- Streak plate rank, 1st inoculation 24 h ([1]; 750 ppm): 5 (5 = greater than 45 cfu)
- Streak plate rank, 1st inoculation 72 h ([1]; 750 ppm): 5c
- Dilution plate count, 3rd inoculation 72 h ([1]; 1000 ppm): 2.1 × 10^6 cfu/mL
- Streak plate rank, 3rd inoculation 24 h ([1]; 1000 ppm): 5c
- Streak plate rank, 2nd inoculation 72 h ([1]; 1000 ppm): 5c
- Streak plate rank, 1st inoculation 24 h ([1]; 1000 ppm): 5 (5 = greater than 45 cfu)
- Streak plate rank, 1st inoculation 72 h ([1]; 1000 ppm): 5 (5 = greater than 45 cfu)
- Dilution plate count, 3rd inoculation 72 h ([1]; 1250 ppm): 6.6 × 10^6 cfu/mL
- Streak plate rank, 3rd inoculation 24 h ([1]; 1250 ppm): 5c
- Streak plate rank, 2nd inoculation 72 h ([1]; 1250 ppm): 5c
- Streak plate rank, 1st inoculation 24 h ([1]; 1250 ppm): 0
- Streak plate rank, 1st inoculation 72 h ([1]; 1250 ppm): 0
- Dilution plate count, 3rd inoculation 72 h ([1]; 1500 ppm): <10 cfu/mL
- Streak plate rank, 3rd inoculation 24 h ([1]; 1500 ppm): 3 (3 = 16-30 cfu)
- Streak plate rank, 2nd inoculation 72 h ([1]; 1500 ppm): 0
- Streak plate rank, 1st inoculation 24 h ([1]; 1500 ppm): 0
- Streak plate rank, 1st inoculation 72 h ([1]; 1500 ppm): 0
- effect of guanidine on bactericidal activity of 4-isothiazolin-3-ones (in words) [1]: significantly improved
- Dilution plate count, 3rd inoculation 72 h ([2]; 750 ppm): <10 cfu/mL
- Streak plate rank, 3rd inoculation 24 h ([2]; 750 ppm): 3 (3 = 16-30 cfu)
- Streak plate rank, 1st inoculation 24 h ([2]; 750 ppm): 4 (4 = 31-45 cfu)
- Streak plate rank, 1st inoculation 72 h ([2]; 750 ppm): 0
- Streak plate rank, 2nd inoculation 72 h ([2]; 750 ppm, inoculum added was 2%): 1** (1 = 1-5 Colony Forming Unit (cfu))
- Dilution plate count, 3rd inoculation 72 h ([2]; 1000 ppm): <10 cfu/mL
- Streak plate rank, 3rd inoculation 24 h ([2]; 1000 ppm): 3 (3 = 16-30 cfu)
- Streak plate rank, 1st inoculation 24 h ([2]; 1000 ppm): 4 (4 = 31-45 cfu)
- Streak plate rank, 1st inoculation 72 h ([2]; 1000 ppm): 0
- Streak plate rank, 2nd inoculation 72 h ([2]; 1000 ppm, inoculum added was 2%): 0**
- Dilution plate count, 3rd inoculation 72 h ([2]; 1250 ppm): <10 cfu/mL
- Streak plate rank, 3rd inoculation 24 h ([2]; 1250 ppm): 3 (3 = 16-30 cfu)
- Streak plate rank, 1st inoculation 24 h ([2]; 1250 ppm): 2 (2 = 6-15 cfu)
- Streak plate rank, 1st inoculation 72 h ([2]; 1250 ppm): 0
- Streak plate rank, 2nd inoculation 72 h ([2]; 1250 ppm, inoculum added was 2%): 0**
- Dilution plate count, 3rd inoculation 72 h ([2]; 1500 ppm): <10 cfu/mL
- Streak plate rank, 3rd inoculation 24 h ([2]; 1500 ppm): 3 (3 = 16-30 cfu)
- Streak plate rank, 1st inoculation 24 h ([2]; 1500 ppm): 2 (2 = 6-15 cfu)
- Streak plate rank, 1st inoculation 72 h ([2]; 1500 ppm): 0
- Streak plate rank, 2nd inoculation 72 h ([2]; 1500 ppm, inoculum added was 2%): 0**
- effect of guanidine on fungicidal activity of 4-isothiazolin-3-ones (in words) [2]: enhancing effect; also recorded: significantly improved
- Dilution-plate count T4 ([3]; Table 9, 940 ppm, 4 hours after treatment, 30° C.): 1.19 × 10^7
- Dilution-plate count T8 ([3]; Table 9, 940 ppm, 8 hours after treatment, 30° C.): 1.02 × 10^7
- Dilution-plate count T24 ([3]; Table 9, 940 ppm, 24 hours after treatment, 30° C.): 4.0 × 10^6
- quick kill performance (in words) ([3]; Tables 8 and 9): markedly accelerated the recovery

Structure (SMILES): CNC(=N)N [methylguanidine HCl, Methylguanidine HCl]
- effect of guanidine on bactericidal activity of 4-isothiazolin-3-ones (in words) [1]: not achieved
- effect of guanidine on fungicidal activity of 4-isothiazolin-3-ones (in words) [2]: not achieved
